Literature values in patent US20080254084A1, “Antimicrobial Preparations Having a Content of Octenidine Dihydrochloride Encapsulated in Liposomes” (Air Liquide Sante (International), priority 2005, published 2008).
Counter-ions that a name gives are not always drawn.

Key:
[1] = test system: a large number of microbes; conditions: concentrations of >0.001% octenidine dihydrochloride, within 1 min
[2] = octenidine dihydrochloride concentration

CCCCCCCCNc1cc[n+](CCCCCCCCCC[n+]2ccc(NCCCCCCCC)cc2)cc1 [octenidine dihydrochloride]
reduction factor [1]: 5 decadic units | concentration at which cytotoxicity is present [2]: > 0.001 % by weight
